Measured values from US20210275605A1, “COMPOSITIONS COMPRISING BACTERIAL STRAINS” (4D Pharma Research Limited, priority 2018, published 2021).
Several values for one entry are separate records, joined by “and”; a condition that tells them apart may be missing. Equal entries are not always repeated.

How the values were obtained:
C57BL/6J mice = assay: DSS-induced colitis mouse model, ileum histology; format: in vivo; settings: for COLITIS SCORING mean ± SEM: group mean, n = 9, 3% DSS; for COLITIS SCORING mean ± SEM / COLITIS SCORING (sum) / Depletion of goblet cells score / Edema score / Erosion (epithelial cell damage) score / Leucocytes Infiltration score: Day 7; for COLITIS SCORING (sum) / Depletion of goblet cells score / Edema score / Erosion (epithelial cell damage) score / Leucocytes Infiltration score: ileum histology, individual mouse, 3% DSS
Experimental: The objective of this study was to determine the prophylactic efficacy of MRX029 in a DSS-induced colitis mouse model, upon repeated oral administration.
Tacrolimus was dosed at 1 mg/kg/day
Valproic acid was dosed at 200 mg/kg/day
PBS, YCFA and bacterial cultures were dosed at 200 μL/day
PBS, YCFA and live bacteria were be daily administered per os (PO) under a fixed volume of 200 μL/mouse
Tacrolimus will be daily administered subcutaneously (SC) under a volume of 10 mL/kg Valproic acid will be daily administered per os (PO) under a volume of 10 mL/kg
Each of sixty three, 6 week old healthy male C57BL/6J mice were obtained from Charles River (France) and individually identified and labelled with a specific code. Each treatment group (9 animals/group) were housed in three different cages.
Animals were dosed by extracting the dosing aliquot from the Hungate tube using a syringe and a 0.8×40 mm needle injected through the septum. The Hungate tube was mixed by inversion before the dosing aliquot was extracted. The first 50-100 μL through the gavage needle and each mouse was dose with 200 μL of culture by oral gavage
Days −7 to Day −1: Treatment with bacteria and reference substances according the treatment table above • Once daily oral administration of PBS, YCF A or Bacteria—200 μL per mouse • Once daily oral administration of Valproic acid at 200 mg/kg/day under a volume of 10 mL/kg
From Day O to Day+7: DSS administration • Administration of 3% DSS in the drinking water
From Day O to Day+6: Treatment with bacteria and reference substances • Once daily oral administration of PBS, YCFA or Bacteria—200 μL per mouse • Once daily oral administration of Valproic acid-200 mg/kg in sterile distilled water—10 mL/kg • Once daily SC administration of Tacrolimus—1 mg/kg in sterile 1% Tween80, 0.9% NaCl −10 mL/kg
Day +7: Sacrifice of all groups and tissue harvesting • Euthanasia of animals was performed under gas anesthesia (lsoflurane) followed by exsanguination and cervical dislocation. Euthanasia methods used are those recommended for mice and rats by European directive 20 I 0/63/CE and the procedure describing euthanasia methods was approved by IACUC. • Laparotomy and ileum harvesting, just upstream of the caecum (from 0.5 cm and on)—all tissue harvested from exactly the same area between all mice: • 1.5 cm swiss-rolled ileum was harvested for histology, the closest to the caecum
Ileum Swiss-rolls specimens were embedded in paraffin and sections of 5 μm thickness were cut and mounted on SuperFrost Ultra plus glass slides. HP (Hematoxylin-Phloxin) staining & AB-PAS (Alcian Blue-Periodic Acid Schiff) staining were performed to visualize histomorphologic changes. A scoring based on edema, erosion, loss of crypts/goblet cells and infiltrates was established on each animal, using the criteria in the following table: […]

IL-6 = IL-6 secretion by U373 glioblastoma astrocytoma cells (ELISA); format: cell-based, human; settings: for LPS-induced secretion of IL-6 in U373 cells, SCFAs: LPS pre-treatment 1 h, increasing concentrations of pure fatty acid
Experimental: MG U373 is a human glioblastoma astrocytoma derived from a malignant tumour and were purchased from Sigma-Aldrich (cat n. 08061901-1VL). MG U373 human glioblastoma astrocytoma cells were grown in MEM (Sigma Aldrich, cat n. M-2279) supplemented with 10% FBS, 1% Pen Strep, 4 mM L-Glut, 1×MEM Non essential Amino Acid solution and 1× Sodium Pyruvate.
Once grown the MG U373 cells were plated on 24-well plate at 100,000 cells/well. The cells were treated with LPS (1 ug/mL) alone or with 10% of bacteria supernatant from MRx0029 for 24 h. A control was also performed where the cells were incubated in untreated media. Afterwards the cell free supernatants were collected, centrifuged at 10,000 g for 3 min at 4° C. IL-6 was measured using the Human IL-6 ELISA Kit from Peprotech (cat n.#900-K16) according to manufacturer instructions.
Human glioblastoma astrocytoma cell line (U373), were maintained in 25 ml MEME 4.5 g/L D-glucose supplemented with 10% heat-inactivated FBS, 4 mM L-Glutamine, 100 U/ml penicillin, 100 μg/ml streptomycin and 5 μg/ml plasmocin, 1% Non-Essential Amino Acids, 1% Sodium Pyruvate (referred to as full growth media).
Cells were plated in 24-well plates at a density of 100,000 cells/well in 1 ml of full growth media and left to rest at 37° C./5% CO2 for 72 h. On the day of the treatment, the media was removed from each well, cells were rinsed with 0.5 ml wash media (serum free MEME), 0.9 ml stimulation media (MEME media containing 2% FBS) containing 1 μg/ml LPS was added to the appropriate wells and incubated at 37° C. and 5% CO2. After 1 h pre-incubation, cells were removed from CO2 incubator and treated with 100 μl bacteria supernatant. YCFA+ media was used as control. […]
Secretion of IL-6 was analysed using hIL-6 Standard ELISA Kits, according to the manufacturer's protocol in the cell-free supernatants from U373 cells treated as described above. Samples were measured at 405 nm with correction wavelength set at 655 nm on a microplate reader (iMark, Bio-Rad). Raw data were plotted and analysed using GraphPad Prism 7 software. […]

histone deacetylase [1] = assay: Histone deacetylase activity in whole HT-29 cells; format: cell-based; settings: pure substance; for total HDAC activity inhibition: whole cells or lysate not distinguished
Experimental: The cell line HT-29 was used because histone deacetylase is present.
Cell free supernatants of stationary phase bacterial cultures were isolated by centrifugation and filtering in a 0.22 uM filter. HT-29 cells were used 3 days' post confluence and stepped down in 1 mL DTS 24 hours prior to commencement of the experiment. The HT-29 cells were challenged with 10% cell free supernatant diluted in DTS and was is left to incubate for 48 hours. […] extraction kit and samples were snap frozen prior to HDAC activity measurement. HDAC activity was assessed fluorometrically using the Sigma Aldrich (UK) kit.
(§1) To investigate which metabolites were responsible for the strain-induced HDAC inhibition, different concentrations of hexanoic acid, valeric acid and sodium butyrate were measured for their HDAC inhibition on whole HT-29 cells and on HT-29 cell lysate.

histone deacetylase [2] = assay: HDAC inhibition on HT-29 cell lysate; format: biochemical; settings: pure substance, different concentrations
Experimental: as §1

SMILES | COLITIS SCORING mean ± SEM (C57BL/6J mice) | COLITIS SCORING (sum) (C57BL/6J mice) | Depletion of goblet cells score (C57BL/6J mice) | Edema score (C57BL/6J mice) | Erosion (epithelial cell damage) score (C57BL/6J mice) | Leucocytes Infiltration score (C57BL/6J mice) | LPS-induced secretion of IL-6 in U373 cells, SCFAs (IL-6) | total HDAC activity inhibition (histone deacetylase [1]) | also measured
C=CC[C@@H]1/C=C(\C)C[C@H](C)C[C@H](OC)[C@H]2O[C@@](O)(C(=O)C(=O)N3CCCC[C@H]3C(=O)O[C@H](/C(C)=C/[C@@H]3CC[C@@H](O)[C@H](OC)C3)[C@H](C)[C@@H](O)CC1=O)[C@H](C)C[C@@H]2OC [Tacrolimus] | 0.44 | 0 (6×) and 2 and 1 (2×) | 0 | 0 | 0 | 0 (6×) and 2 and 1 (2×) |  |  | leukocyte infiltration in the ileum, group result (C57BL/6J mice; DSS animals versus vehicle DSS groups): reduced leukocyte infiltration comparable to controls
CCCC(CCC)C(=O)O [Valproic acid, Valproic Acid] | 0.67 | 2 (2×) and 1 (2×) and 0 (5×) | 0 | 0 | 0 | 2 (2×) and 1 (2×) and 0 (5×) |  |  | 
CCCCCC(=O)O [hexanoic acid] |  |  |  |  |  |  | did not inhibit IL-6 secretion | did show significant inhibitory activity | 
CCCC(=O)[O-].[Na+] [sodium butyrate] |  |  |  |  |  |  | inhibited LPS-induced secretion of IL-6 in U373 cells in a concentration-dependent manner | significant HDAC inhibition | basal IL-6 secretion in U373 cells (IL-6; absence of LPS): decreased the basal level of IL-6; HDAC inhibition on whole HT-29 cells (histone deacetylase [1]; different concentrations): significant (P<0.05) inhibition of HDAC activity; HDAC inhibition on HT-29 cell lysate (histone deacetylase [2]): significant (P<0.05) inhibition of HDAC activity
CCCCC(=O)O [valeric acid] |  |  |  |  |  |  |  | significant HDAC inhibition | total HDAC activity inhibition (histone deacetylase [1]; listed as Valeric acid): inhibited total HDAC activity
